Experimental data from patent publication US20030185864A1, “Preventives or remedies for atopic dermatitis” (priority 2000, published 2003).

Tests used:
[1] = test system: epidermal ceramide synthesis; assay: Evaluation of the amount of epidermal ceramide synthesis in hairless mice; assay type: in vivo, hairless mouse (SKH1:hr/hr:BR); conditions: for Relative amount of total ceramide synthesis (%) / Relative amount of ceramide III synthesis (%): relative to untreated mice; for Relative amount of ceramide III synthesis (%): 200 μl to dorsal skin once a day for one month, ceramide III = ceramides 1 and 2
Experimental: Test Compositions 1 to 5 were obtained by preparing 30% by weight aqueous ethanol solutions containing 0, 1.0, 3.0, 5.0 and 10.0% by weight, respectively, of N-acetyl-trans-4-hydroxy-L-proline. The pH values of the aqueous solutions were adjusted to 4.5 with sodium hydroxide.
Each of Test Compositions 1 to 5 was applied at 200 μl to the entire dorsal area as the tested region of each hairless mouse (SKH1:hr/hr:BR, male, 7 week old, available from Charles River Japan, Inc.) once a day for one month. The mice were used as four animals per each group.
Before starting of the application and one month after starting of the application, epidermal lipids were extracted from the entire dorsal area as the tested region of each mouse, and the activity of N-acetyl-trans-4-hydroxy-L-proline to synthesize ceramide was evaluated by measuring the ceramide content.
The epidermal lipids were obtained by extraction with 95% ethanol and further extracting the extract with hexane:methanol (2:3), followed by drying. The resulting epidermal lipids were dissolved in chloroform and separated by using silica gel thin layer chromatography in a manner similar to the method of Imokawa et al. [Journal of Investigative Dermatology, 96, 523 (1991)], and then the ceramide content was measured using a flying-spot scanning densitometer (manufactured by Shimadzu Corporation, CS-9000).
The ceramide content was calculated in accordance with the following equation, as the relative value to the change in the amount of ceramide synthesis in untreated mice.
Relative amount of ceramide synthesis (%)=[(A1×B2)/(A2×B1)]×100
A1: Ceramide content after application in tested mice
A2: Ceramide content before application in tested mice
B1: Ceramide content after application in untreated mice
B2: Ceramide content before application in untreated mice
Since it is known that the ceramides exist in several isomer forms, the calculation was carried out on each of the amount of total ceramide synthesis and those of syntheses of various ceramide isomers. As the standards, ceramide III (consisting of ceramides 1 and 2) and ceramide IV (consisting of ceramides 4 and 5) both manufactured by Sigma wer used. Here, total ceramide means the total of ceramides 1, 2, 4 and 5, and ceramide III means the total of ceramides 1 and 2. The ceramides 1, 2, 4 and 5 correspond to the compounds 1, 2, 4 and 5, respectively, described in FIG. 2 of Journal of Lipid Research, 24, 559 (1983).

[2] = test system: auricular edema in atopic dermatitis-induced model mice (Type I Allergy Model); assay: Auricular edema inhibition in atopic dermatitis-induced model mice (type I allergy model, tick extract); assay type: in vivo, NC/Nga mouse; conditions: for Relative auricular edema increase (%): 20 μl to both sides of auricle once a day from 7th day, measured on 28th day, mean ± SD, n=6
Experimental: Test Compositions 6 to 8 were obtained by preparing 30% by weight aqueous ethanol solutions containing 0, 1.0 and 3.0% by weight, respectively, of N-acetyl-trans-4-hydroxy-L-proline. The pH values of the aqueous solutions were adjusted to 4.5 with sodium hydroxide.
Atopic dermatitis using NC/Nga mice was carried out in a same manner similar to the method of Sasagawa et al. [16th Japanese Society of Disease Models (1999)]. Auricular edema was induced by intradermal injection of 20 μg of a tick (Dermatophagoides pteronyssinus) extract as the antigen into the auricle of NC/Nga mouse (male, 8 week old, available from Charles River Japan, Inc.), once a day at a predetermined time in the 1st day, 3rd day and every day from 7th days after starting of the test. Each of Test Compositions 6 to 8 was applied at 20 μl to both sides of the auricle as the tested region, 6 hours after administration of the tick extract, once a day from the 7th day after starting of the test. The mice were used as six animals per each group.
A thickness of the auricle was measured on the 28th day after starting of the test using a dial thickness gauge (G-1A, manufactured by PEACOCK), and the relative auricular edema increase (%) was calculated in accordance with the following equation.
(§1) Relative auricular edema increase (%)=[(A1×B2)/(A2×B1)]×100
(§2) A1: Thickness of auricle after passed days in tested mice
(§3) A2: Thickness of auricle at the time of starting of the test in tested mice
(§4) B1: Thickness of auricle after passed days in untreated mice
(§5) B2: Thickness of auricle at the time of starting of the test in untreated mice

[3] = test system: auricular edema in atopic dermatitis-induced model mice (Type I and Type IV Allergy Models); assay: Auricular edema inhibition in atopic dermatitis-induced model mice (type I and type IV allergy models, DNCB); assay type: in vivo, NC/Nga mouse; conditions: for Relative auricular edema increase (%): 3% by weight, 20 μl to both sides of auricle once a day, mean ± SD, n=6
Experimental: Test Compositions 9 and 10 were obtained by preparing 30% by weight ethanol solutions containing 0 and 3.0% by weight, respectively, of N-acetyl-trans-4-hydroxy-L-proline. The pH values of the aqueous solutions were adjusted to 4.5 with sodium hydroxide.
Atopic dermatitis using NC/Nga mice was carried out in a manner similar to the method of Fujii et al. [Fundamentals and Clinics (Kiso-to-Rinsho), 31(8), 2693 (1997)]. Auricular edema was induced by applying 20 μl of 1.5% dinitrochlorobenzene (DNCB) to both sides of the auricle of NC/Nga mouse (male, 8 week old, available from Charles River Japan, Inc.), once a day at a predetermined time in the 1st, 3rd and 7th days after starting of the test. Each of Test Compositions 9 and 10 was applied at 20 μl to both sides of the auricle as the tested region, 6 hours after the application of DNCB and once a day every day from the 1st day after starting of the test. The mice were used as six animals per each group.
Just before the application of the test compositions to the auricle on the 11th, 12th, 14th and 17th days after starting of the test, a thickness of the auricle was measured using a dial thickness gauge (G-1A, manufactured by PEACOCK), and the relative auricular edema increase (%) was calculated in accordance with the following equation.
as §1, §2, §3, §4, §5

[4] = concentration of 1 to 3% by weight, long period of continuous use

CC(=O)N1C[C@H](O)C[C@H]1C(=O)O [N-acetyl-trans-4-hydroxy-L-proline]
Relative amount of total ceramide synthesis (%) ([1]; 1% by weight in 30% aqueous ethanol pH 4.5, 200 μl to dorsal skin once a day for one month): 218.6% | Relative amount of ceramide III synthesis (%) ([1]; 1% by weight): 239.5% | Relative amount of total ceramide synthesis (%) ([1]; 3% by weight in 30% aqueous ethanol pH 4.5, 200 μl to dorsal skin once a day for one month): 170.6% | Relative amount of ceramide III synthesis (%) ([1]; 3% by weight): 321.1% | Relative amount of ceramide III synthesis (%) ([1]; 5% by weight): 209.6% | Relative amount of ceramide III synthesis (%) ([1]; 10% by weight): 185.9% | total ceramide content in the epidermal stratum corneum [1, 4]: significant increase | ceramide III in the epidermal stratum corneum ([1]; concentration of 1 to 10% by weight, long period of continuous use): significant increase | Relative auricular edema increase (%) ([2]; 1% by weight): 120.9 ± 3.5% | Relative auricular edema increase (%) ([2]; 3% by weight): 110.1 ± 4.4% | inhibition of auricular edema caused by the type I allergy model [2, 4]: significantly inhibited | Relative auricular edema increase (%) ([3]; 11th day after starting of test): 360.1 ± 64.2% | Relative auricular edema increase (%) ([3]; 12th day after starting of test): 399.7 ± 55.9% | Relative auricular edema increase (%) ([3]; 14th day after starting of test): 429.0 ± 72.3% | Relative auricular edema increase (%) ([3]; 17th day after starting of test): 312.1 ± 50.6% | inhibition of auricular edema caused by the type I and type IV allergy models ([3]; concentration of 3% by weight, long period of continuous use): significantly inhibited
